The source of these data is ChEMBL document CHEMBL3997775, “Challenges and Opportunities in the Development of Serine Synthetic Pathway Inhibitors for Cancer Therapy” (J Med Chem, 2017).

Converted amounts (≈) assume the structure as drawn.

By logD is commonly meant lipophilicity at a set pH, counting ionised and neutral species. By solubility is commonly meant the dissolved amount per volume that the medium holds. What is called IC50 is the midpoint of a concentration-inhibition curve. By ΔTm is commonly meant the shift of the melting midpoint relative to a reference.

Tested on in the first data set: not listed separately
Nature of the data set: Lipophilicity, logD of the compound. It is filed as physicochemical. The conditions noted are these: octanol/water.
In turn, `O=C(COc1cc2[nH]c(C(=O)N[C@H](CO)c3ccc(C(=O)O)cc3)cc2cc1Cl)NCCO` displayed a logD below -1.

Tested on in another data set: not listed separately
Description: Solubility of the compound. The data set is classed as physicochemical.
Settings: not given
`O=C(COc1cc2[nH]c(C(=O)N[C@H](CO)c3ccc(C(=O)O)cc3)cc2cc1Cl)NCCO` gave a solubility of 973 µM (≈ 463 µg/mL).

The target in a further data set is T1, D-3-phosphoglycerate dehydrogenase (Homo sapiens, UniProt O43175).
T1 sequence (O43175 whole entry): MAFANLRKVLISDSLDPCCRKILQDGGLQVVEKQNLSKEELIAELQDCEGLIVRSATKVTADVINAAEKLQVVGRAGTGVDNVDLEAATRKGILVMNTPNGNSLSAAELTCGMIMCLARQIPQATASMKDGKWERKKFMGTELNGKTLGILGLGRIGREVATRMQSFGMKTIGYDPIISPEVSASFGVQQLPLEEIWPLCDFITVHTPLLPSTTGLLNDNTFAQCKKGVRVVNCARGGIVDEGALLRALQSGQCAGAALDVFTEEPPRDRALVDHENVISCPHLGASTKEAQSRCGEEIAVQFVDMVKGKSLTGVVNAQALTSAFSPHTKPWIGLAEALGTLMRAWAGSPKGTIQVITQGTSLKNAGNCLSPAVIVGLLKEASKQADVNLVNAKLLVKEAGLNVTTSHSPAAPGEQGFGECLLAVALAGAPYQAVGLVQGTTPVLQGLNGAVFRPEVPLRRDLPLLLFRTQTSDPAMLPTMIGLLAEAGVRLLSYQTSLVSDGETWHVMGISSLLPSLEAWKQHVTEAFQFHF
Nature of the data set: Inhibition of full length PHGDH (unknown origin) using 3-phosphoglycerate as substrate incubated for 60 mins in presence of PSAT1, PSPH by resazurin based diaphorase coupled assay.
Settings: not given
(In general: Resazurin is reduced to fluorescent resorufin, in cell work by metabolically active cells.)
Regarding `O=C(Nc1ccc(S(=O)(=O)NCCCN2CCOCC2)cc1)c1cc(-c2ccccc2O)n[nH]1`, the 50% inhibitory concentration (IC50) was above 100 µM. Still for that read-out and setting: the value for `Cc1c(-c2ccccc2)n[nH]c1C(=O)Nc1ccc(S(=O)(=O)Nc2ncccn2)cc1` was above 100 µM; that for `Cc1ccnc(NS(=O)(=O)c2ccc(NC(=O)c3cc(-c4ccccc4O)n[nH]3)cc2)n1` was below 50 µM.

On to `O=C(Nc1ccc(S(=O)(=O)Nc2ncccn2)cc1)c1cc(-c2ccccc2)n[nH]1`, for which the IC50 is below 50 µM. On the same count and under the same terms, next, `NS(=O)(=O)c1ccc(NC(=O)c2cc(-c3ccccc3O)[nH]n2)cc1`: above 100 µM; `O=C(Nc1ccc(S(=O)(=O)Nc2ncccn2)cc1)c1cc(-c2ccccc2)on1`: above 100 µM. On the same count and under the same terms, next, `O=C(Nc1ccc(S(=O)(=O)N2CCCCC2)cc1)c1cc(-c2ccccc2O)n[nH]1`: above 100 µM. Still for that read-out and setting: the value for `O=C(c1cc(-c2ccccc2)n[nH]1)N1CCC2C=C(S(=O)(=O)Nc3ncccn3)C=CC21` (stereo not drawn) was above 100 µM; that for `Cn1nc(-c2ccccc2)cc1C(=O)Nc1ccc(S(=O)(=O)Nc2ncccn2)cc1` was below 50 µM; that for `O=C(Nc1ccc(S(=O)(=O)NCc2ccco2)cc1)c1cc(-c2ccccc2O)n[nH]1` was above 100 µM. Turning to `O=C(Nc1ccc(S(=O)(=O)Nc2ccccn2)cc1)c1cc(-c2ccccc2)n[nH]1`, the concentration for half-maximal inhibition (IC50) is 50 to 100 µM. On the same count and under the same terms, next, `O=C(Nc1ccc(S(=O)(=O)Nc2ncccn2)cc1)c1cc(-c2ccccc2O)n[nH]1`: below 50 µM. As to `O=C(Nc1ccc(S(=O)(=O)Nc2ncccn2)cc1)c1cc(-c2ccccc2F)n[nH]1`, the IC50 is below 50 µM. The same measure, in the same setting: next, `CN(c1ncccn1)S(=O)(=O)c1ccc(NC(=O)c2cc(-c3ccccc3O)n[nH]2)cc1`: above 100 µM; `O=C(Nc1ccc(S(=O)(=O)Nc2ncccn2)cc1)c1cc(-c2ccccc2C(=O)O)n[nH]1`: above 100 µM; `O=C(Nc1ccc(S(=O)(=O)Nc2ncccn2)cc1)c1cc(-c2ccccc2)nn1-c1ccccc1`: above 100 µM. With `O=C(Nc1ccc(S(=O)(=O)Nc2ncccn2)cc1)c1cc(-c2ccccc2)no1`, the IC50 was above 100 µM. Still for that read-out and setting: next, `COc1ccccc1-c1cc(C(=O)Nc2ccc(S(=O)(=O)Nc3ncccn3)cc2)[nH]n1`: below 50 µM. Still for that read-out and setting: the value for `O=C(Nc1ccc(S(=O)(=O)Nc2ccccn2)cc1)c1cc(-c2ccccc2O)n[nH]1` was above 100 µM; that for `Nc1ncccc1-c1cc(C(=O)Nc2ccc(S(=O)(=O)Nc3ncccn3)cc2)[nH]n1` was above 100 µM; that for `CN(c1ncccn1)S(=O)(=O)c1ccc(NC(=O)c2cc(-c3ccccc3)n[nH]2)cc1` was above 100 µM. The same measure, in the same setting: the value for `Cc1cc(C)nc(NS(=O)(=O)c2ccc(NC(=O)c3cc(-c4ccccc4)n[nH]3)cc2)n1` was below 50 µM.

Another data set concerns the target T2, D-3-phosphoglycerate dehydrogenase (Homo sapiens) (UniProt O43175).
T2 sequence (whole entry): T1 sequence (O43175 whole entry)
Description: Binding affinity to human N- terminal His6-tagged PHGDH (1 to 533 residues) expressed in Escherichia coli Rosetta (DE3) assessed as change in melting temperature by SYPRO orange dye based DSF assay.
Settings: not given
On to `Nc1cccc(-c2cnco2)c1`, for which the ΔTm came out at 1.4 °C. Same read-out and setting: the value for `O=C1COc2cc(O)ccc21` was 1.7 °C; that for `Oc1noc2ccccc12` was 2.5 °C; that for `NC(=O)c1ccc(F)c(Cl)c1` was 2.3 °C. The same measure, in the same setting: next, `Cn1nc(-c2ccccc2)cc1N`: 2.2 °C; `COc1ccc(NC(C)=O)cc1Cl`: 1.3 °C; `Cc1cccc2cc[nH]c12`: 2.4 °C.

Another data set has as its target T1, D-3-phosphoglycerate dehydrogenase.
Settings: not given
`Cc1cccc(NC(=S)N2CCN(c3cccc(C(F)(F)F)c3)CC2)c1` had an IC50 above 57 µM.

In turn, `Cc1cc(C)nc(NC(=S)N2CCN(c3cccc(C(F)(F)F)c3)CC2)c1` yielded an IC50 of 6.5 µM.
